Like-named read-outs stand apart in the source and are kept apart here.
Assays:
[1] = In vivo biodistribution and clearance of dyes in rats (FLARE NIR fluorescence imaging); settings: IV 40 pmol/g (10 nmol)
Description: The dyes were injected IV into rats at a dose of 40 pmol/g (10 nmol). […] Excitation fluence rate was 5 mW/cm2. Camera integration time was 200 msec. All NIR fluorescence images have identical normalizations. B 1=bladder. Li=Liver. In=Intestines.

[2] = Optical properties of NIR fluorophores in 100% calf serum; assay type: physicochemical; settings: 100% calf serum supplemented with 50 mM HEPES, pH 7.4
Text: After purification to homogeneity, optical properties of the dyes can be measured in 100% calf serum. Absorbance spectrometry (200 to 870 nm) can be performed using a USB2000 fiber optic spectrometer and CHEM2000-UV-VIS light source with cuvette holder (Ocean Optics, Dunedin, Fla.). Fluorescence spectrometry (200 to 1100 nm) can be performed using a HR2000 fiber optic spectrometer, CUV-ALL-UV 4-way cuvette holder (Ocean Optics), and a 250 mW 770 nm laser diode (Electro Optical Components, Santa Rosa, Calif.). Quantum yield can be measured under conditions of matched absorbance and 770 nm laser excitation, using ICG in DMSO (QY=13%) as the calibration standard.
(§1) Table 2 below summarizes the optical and stability properties of each of these dyes in 100% calf serum (supplemented with 50 mM HEPES, pH 7.4).

[3] = Stability of dyes in 100% calf serum at 37° C.; assay type: in vitro ADME; settings: 100% calf serum supplemented with 50 mM HEPES, pH 7.4
Description: as §1

[4] = In vivo biodistribution and clearance of dyes in pigs (FLARE NIR fluorescence imaging); settings: for Blood half-lives: IV 40 pmol/g, given in the pig paragraph, species not restated; for uptake in liver and intestines: pigs, IV 40 pmol/g (1.6 μmol)
Description: (§2) For in vivo characterization, 40 pmol/g (average 10 nmol) of each dye or conjugate can be injected IV into 250 g Sprague-Dawley rats whose major viscera are surgically exposed. The FLARE™ imaging system can be set to a 760 nm excitation fluence rate of 5 mW/cm2. Simultaneous color video and NIR fluorescence (800 nm) images can be acquired pre-injection, every 1 sec for the first 20 sec then every 1 min for 2 h. Camera acquisition can be held constant (typically 100 msec) and chosen to ensure that all intensity measurements are within the linear range of the 12-bit Orca-AG (Hamamatsu) NIR camera. Blood can be sampled at 0, 1, 2, 5, 10, 15, 30, 60, and 120 min via tail vein. Intensity-time curves for all major organs and tissues can be quantified. The peak fluorescence intensity and time can be determined for each tissue/organ, along with the intensity in each at 1 h post-injection. The experiment can then be repeated in pigs, with measurement of NIR fluorescent intensity of skin and all internal tissues and organs.
(§3) All dyes were injected IV into pigs at a dose of 40 pmol/g (1.6 μmol). […] Excitation fluence rate was 5 mW/cm2. Camera integration time was 200 msec. All NIR fluorescence images had identical normalizations.

[5] = in DMSO; cited from earlier work
[6] = Renal clearance: recovery of dye in urine samples; assay type: in vivo; settings: human, healthy individuals, urine over 12 h, read-out: recovery of the pre-determined dose in urine
Description: Dye MM-19 with net charge of 0 was administered to three groups of subjects of healthy individuals. One group was administered a pre-determined dose of 0.5 mg; one group was administered a pre-determined dose of 2.5 mg; and one group was administered a pre-determined dose of 5.0 mg. Clearance of the dye was measured by quantitative analysis of urine samples obtained by catheterization every hour for the first four hours followed by samples obtained every two hours for the next 8 hours.

in vivo = settings: pig, iv
Description: as §2, §3

clearance / excretion route [1]	intestinal signal [1]	Extinction Coefficient [2]	Peak Absorbance [2] [nm]	Peak Emission [2] [nm]	QY [2] [%]	Stability at 4 h, 37° C. [3] [%]	Blood half-lives [4] [min]	liver uptake [1]	dose excreted ([6]; dose not named in the sentence (groups 0.5, 2.5, 5.0 mg)) [%]	dose excreted ([6]; predetermined dose of 0.5 mg) [%]	dose excreted ([6]; predetermined dose of 2.5 mg) [%]	half-life (in vivo) [min]	Compound	non-specific uptake / background retention in tissues and organs [1]	uptake in liver and intestines [4]	QY (calibration standard) [5] [%]	equilibration between intravascular and extravascular spaces [1]
cleared equally by liver and kidneys	high intestinal signal	237,000 M^−1cm^−1	786	801	14.2	95	30.6	–	–	–	–	–	CC1(C)C(/C=C/C2=C(Oc3ccc(S(=O)(=O)O)cc3)C(=C/C=C3/N(CCCCS(=O)(=O)O)c4ccc(S(=O)(=O)[O-])cc4C3(C)C)/CCC2)=[N+](CCCCCC(=O)O)c2ccc(S(=O)(=O)O)cc21 [CW-800]	relatively high retention in skin and other major tissues and organs	very high uptake in pig liver and intestines	–	–
eventual excretion into bile	–	121,000 M^−1cm^−1	807	822	9.3	96	4.6	rapid uptake by the liver	–	–	–	–	CC1(C)C(/C=C/C=C/C=C/C=C2\N(CCCCS(=O)(=O)[O-])c3ccc4ccccc4c3C2(C)C)=[N+](CCCCS(=O)(=O)[O-])c2ccc3ccccc3c21.[Na+] [ICG]	–	very high uptake in pig liver and intestines	13	–
rapid renal excretion into urine	–	249,000 M^−1cm^−1	773	790	13.7	95	–	no measurable liver uptake	> 50	> 80	> 60	13.4	CC1(C)C(/C=C/C2=C(Oc3ccc(CCC(=O)[O-])cc3)C(=C/C=C3/N(CCC[N+](C)(C)C)c4ccc(S(=O)(=O)[O-])cc4C3(C)C)/CCC2)=[N+](CCC[N+](C)(C)C)c2ccc(S(=O)(=O)[O-])cc21 [MM-19]	extremely low background retention in normal tissues and organs	–	–	rapid equilibration between intravascular and extravascular spaces

From US10493169B2, “Use of charge-balanced imaging agents for determining renal function” (Beth Israel Deaconess Medical Center, priority 2009, dated 2019)
